The text below walks through data of ChEMBL document CHEMBL4823249, “Discovery of a Pyrimidinedione Derivative as a Potent and Orally Bioavailable Axl Inhibitor” (J Med Chem, 2021).

The target of data set [1] is T1, Tyrosine-protein kinase receptor UFO (Homo sapiens, UniProt P30530).
T1 sequence (P30530 whole entry): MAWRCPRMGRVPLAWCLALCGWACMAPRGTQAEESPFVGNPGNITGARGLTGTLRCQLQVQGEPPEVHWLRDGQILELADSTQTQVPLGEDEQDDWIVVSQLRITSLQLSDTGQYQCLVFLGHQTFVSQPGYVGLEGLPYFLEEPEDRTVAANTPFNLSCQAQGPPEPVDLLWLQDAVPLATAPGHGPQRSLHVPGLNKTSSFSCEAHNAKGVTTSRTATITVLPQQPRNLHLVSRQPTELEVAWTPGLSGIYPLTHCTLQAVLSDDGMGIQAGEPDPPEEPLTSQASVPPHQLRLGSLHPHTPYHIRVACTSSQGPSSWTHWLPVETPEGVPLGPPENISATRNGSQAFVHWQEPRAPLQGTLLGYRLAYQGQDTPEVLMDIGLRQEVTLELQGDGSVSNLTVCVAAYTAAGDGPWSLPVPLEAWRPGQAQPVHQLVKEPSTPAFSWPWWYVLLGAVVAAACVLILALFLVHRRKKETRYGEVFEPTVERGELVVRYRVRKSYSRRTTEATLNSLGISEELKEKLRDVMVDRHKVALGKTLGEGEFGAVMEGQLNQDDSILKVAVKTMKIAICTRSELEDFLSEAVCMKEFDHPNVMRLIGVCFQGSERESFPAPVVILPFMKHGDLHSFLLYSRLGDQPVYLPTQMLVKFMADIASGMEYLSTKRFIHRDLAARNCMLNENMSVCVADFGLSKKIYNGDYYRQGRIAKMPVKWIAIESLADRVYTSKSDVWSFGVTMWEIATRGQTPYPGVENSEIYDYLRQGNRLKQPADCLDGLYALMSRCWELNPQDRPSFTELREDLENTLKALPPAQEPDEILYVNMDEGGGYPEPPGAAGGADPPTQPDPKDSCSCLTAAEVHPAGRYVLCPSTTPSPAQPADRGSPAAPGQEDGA
The data set can be described thus: Inhibition of AXL (unknown origin) using poly [Glu, Tyr] 4:1 as substrate incubated for 60 mins in presence of ATP by ELISA.

Data set [2] deals with BaF3. The data set is described as follows: Antiproliferative activity against mouse BaF3/TEL-AXL cells incubated for 72 hrs by SRB or CCK8 assay. The conditions noted are these: BaF3, 72 h.
Data set [3] can be described thus: AUC(0 to infinity) in Sprague-Dawley rat at 3 mg/kg, po measured upto 24 hrs by LC-MS analysis. In kind it is ADME, organism-based. Details: route oral, dose 3 mg/kg, time <=24. The conditions noted are these: in vivo.
The nature of data set [4]: Cmax in Sprague-Dawley rat at 3 mg/kg, po measured upto 24 hrs by LC-MS analysis. The following applies: in vivo. More on the design: route oral, dose 3 mg/kg, time <=24. The class given is ADME, organism-based.
The nature of data set [5]: Half life in Sprague-Dawley rat at 3 mg/kg, po measured upto 24 hrs by LC-MS analysis. In kind it is ADME, organism-based. The following applies: in vivo.
Data set [6] can be described thus: AUC(0 to t) in Sprague-Dawley rat at 3 mg/kg, po measured upto 24 hrs by LC-MS analysis. More on the design: route oral, dose 3 mg/kg, time <=24. In kind it is ADME, organism-based. The following applies: in vivo.
Data set [7] in a line: Tmax in Sprague-Dawley rat at 3 mg/kg, po measured upto 24 hrs by LC-MS analysis. In kind it is ADME, organism-based. The following applies: in vivo.
The next data set concerns U-87 MG. The data set can be described thus: Antitumor activity against human U-87MG cells xenografted in BALB/c nude mouse assessed as tumor growth inhibition at 50 mg/kg, po administered once daily for 14 days by caliper method. The conditions noted are these: 336 h, time 14 day, read-out: TGI. In kind it is functional, U-87MG ATCC. In general terms: Xenograft models place foreign cells or tissue in a host animal.

The test system of data set [8] is BaF3. The data set can be described thus: Antitumor activity against mouse BaF3/TEL-AXL cells xenografted in BALB/c nude mouse assessed as tumor growth inhibition at 50 mg/kg, po administered once daily for 14 days by caliper method. The class given is functional. The following applies: 336 h, time 14 day, read-out: TGI.

Broadly, the IC50 is the point on the concentration scale where inhibition reaches its midpoint. As usually defined, the AUC(0-inf) is total exposure, with the tail of the curve extrapolated. Higher therefore signals more exposure. What is called Cmax is the maximum level reached in the sampled fluid or tissue. What is called half-life is how long it takes for the measured level to halve. A higher half-life goes with slow decline. For orientation: AUC(0-t) means the area under the concentration-time curve up to a stated or last time point. A high value points to more exposure. The Tmax is the time at which the peak concentration occurs.

Take `COc1cc(NC(=O)c2cn(C(C)C)c(=O)n(-c3ccc(F)cc3)c2=O)ccc1Oc1ccnc(-c2cnn(C)c2)c1`: the IC50 in data set [1] was more than 1000 nM.
The compound `CC(C)n1cc(C(=O)Nc2ccc(Oc3ccnc(NC(=O)C4CCC4)c3)c(F)c2)c(=O)n(-c2ccc(F)cc2)c1=O` registered a concentration for half-maximal inhibition (IC50) in the data set on BaF3 [2] of 43.2 nM.
In the case of `CC(C)n1cc(C(=O)Nc2ccc(Oc3ccnc(-c4cnn(CC(C)(C)O)c4)c3)c(F)c2)c(=O)n(-c2ccc(F)cc2)c1=O`, half-maximal inhibition in the data set with BaF3 [2] (IC50) required 2.8 nM.
On to `Cc1nn(C)cc1-c1cc(Oc2ccc(NC(=O)c3cn(C(C)C)c(=O)n(-c4ccc(F)cc4)c3=O)cc2F)ccn1`, for which the concentration for half-maximal inhibition (IC50) in the data set with BaF3 [2] is 1 nM.
The compound `CC(C)n1cc(C(=O)Nc2ccc(Oc3ccnc(NC(=O)N4CCCC4)c3)c(F)c2)c(=O)n(-c2ccc(F)cc2)c1=O` showed a 50% inhibitory concentration (IC50) in the data set on BaF3 [2] of less than 0.2 nM.
In [3], `CC(C)n1cc(C(=O)Nc2ccc(Oc3ccnc(-c4cn[nH]c4)c3)c(F)c2)c(=O)n(-c2ccc(F)cc2)c1=O` registered a total exposure AUC(0-inf) of 52200 ng·h/mL. This compound showed a Cmax in data set [4] of 2570 ng/mL. Moreover, the half-life in data set [5] is 1090 min. In data set [6], this compound had an AUC(0-t) at 24 h of 31600 ng·h/mL. Also, the Tmax in data set [7] was 1.67 h. The compound further yielded a 50% inhibitory concentration (IC50) in the data set with BaF3 [2] of less than 0.2 nM.
For `CC(C)n1cc(C(=O)Nc2ccc(Oc3ccnc(-c4cnn(C)c4)c3)c(F)c2)c(=O)n(-c2ccc(F)cc2)c1=O`, inhibition with BaF3 [2] was half-maximal at 1.9 nM (IC50).
Consider `CCc1nc(C(N)=O)c(Nc2ccc(N3CCC(N4CCN(C)CC4)CC3)c(OC)c2)nc1NC1CCOCC1` [GILTERITINIB], for which, in the data set on BaF3 [2], the IC50 came out at 7.6 nM.
In the data set with BaF3 [2], `CC(=O)Nc1cc(Oc2ccc(NC(=O)c3cn(C(C)C)c(=O)n(-c4ccc(F)cc4)c3=O)cc2F)ccn1` displayed an IC50 of less than 0.2 nM.
As to `Cn1cc(-c2cnccc2Oc2ccc(NC(=O)C3=C(c4ccccc4)c4ccccc4C3=O)cc2)cn1`, the IC50 in data set [1] is more than 1000 nM.
In the case of `C[C@@H](Oc1cc(-c2cnn(C3CCNCC3)c2)cnc1N)c1c(Cl)ccc(F)c1Cl` [CRIZOTINIB], the inhibition in vivo at 50 mg/kg with U-87 MG was 93.3%.
For `CCc1ccc2c(c1)c(=O)c(C(=O)Nc1ccc(Oc3ccncc3-c3cnn(C)c3)cc1)c(C)n2C`, in data set [1], the 50% inhibitory concentration (IC50) was more than 1000 nM.
`CCC(=O)Nc1cc(Oc2ccc(NC(=O)c3cn(C(C)C)c(=O)n(-c4ccc(F)cc4)c3=O)cc2F)ccn1` came in with an IC50 with BaF3 [2] of less than 0.2 nM.
The same measure, in the same setting: the same measure for `CC(C)n1cc(C(=O)Nc2ccc(Oc3ccnc(NC(=O)N4CCOCC4)c3)c(F)c2)c(=O)n(-c2ccc(F)cc2)c1=O`: less than 0.2 nM; for `CC(C)n1cc(C(=O)Nc2ccc(Oc3ccnc(-c4cnn(CCN5CCN(C)CC5)c4)c3)c(F)c2)c(=O)n(-c2ccc(F)cc2)c1=O`: 19.5 nM.
Regarding `Cn1cc(-c2cnccc2Oc2ccc(NC(=O)c3c4c(cn(-c5ccccc5)c3=O)C(=O)CCC4)cc2)cn1`, the IC50 in data set [1] is more than 1000 nM.
With `CCOc1cn(-c2ccc(F)cc2)nc1C(=O)Nc1ccc(Oc2ccncc2-c2cnn(C)c2)cc1`, in [1], the IC50 is more than 1000 nM.
Regarding `Nc1nc(Nc2ccc3c(c2)CC[C@@H](N2CCCC2)CC3)nn1-c1cc2c(nn1)-c1ccccc1CCC2` [BEMCENTINIB], the inhibition in vivo at 50 mg/kg with BaF3 [8] is 108%. In addition, in the data set with BaF3 [2], the half-inhibitory concentration (IC50) amounted to 117 nM.
`CC(C)n1cc(C(=O)Nc2ccc(Oc3ccnc(-c4cnn(C5CC5)c4)c3)c(F)c2)c(=O)n(-c2ccc(F)cc2)c1=O`: the IC50 in the data set on BaF3 [2] stood at 6.3 nM.
